According to patent US11590129B2, “Combination therapy with an antitumor alkaloid” (PHARMA MAR, S.A., priority 2010, dated 2023):
Where two headings read alike, the source gives them in different places. Values belong to the compound of their own block, whether it stands above or below them. Starred links: 1 amine or outer side, 2 acyl side, 3 side chain; linkers in the order of their positions; H or OH if unused. Positions of bridges follow the written chain, without caps; N, C: chain ends. Non-standard residues stand in square brackets, D forms with d. Residues, ends and D or L forms follow the SMILES beside them. Chains are numbered I, II in the order given. Actinocin(9to1) = Cc1c2oc3c(C)ccc(C(=O)[*:1])c3nc-2c(C(=O)[*:2])c(N)c1=O; NMeV = CN[C@H](C(=O)O)C(C)C; Sar = CNCC(=O)O

How the values were obtained:
[1] = test system: HGC-27 human gastric carcinoma cell line; assay: cells
Description: (§1) a. […] Briefly, cells were harvested and seeded in 96 well microtiter plates at a density of 5,000 cells in 150 μL of culture medium and incubated for 24 hours in drug-free medium before treatment with vehicle alone or test compounds for 72 h.
(§2) The cytotoxic effect was measured by the MTT reduction assay, in which 3-(4,5-Dimethylthiazol-2-yl)-2,5-diphenyltetrazolium bromide, a tetrazole, which is reduced to purple formazan in the mitochondria of living cells, was used. MTT (50 μL of 1 mg/mL stock solution) was added to the wells and incubated for 8 hours at 37° C. until formazan crystals were formed. After gently removing the culture medium, DMSO was added to dissolve the insoluble purple formazan product into a colored solution. […] Results were expressed as percentage of control cell growth.
(§3) b. In a second set of assays, A549 human tumor cells were incubated with PM01183 in combination with each of the agents mentioned above.
(§4) As a visual aid, response values were plotted on a scatter plot with dose ratios given on the x-axis and % response values on the y-axis. […] In cases where response values at the two endpoints were approximately equivalent, points lying above or below this predicted line of additivity could be interpreted as representing antagonistic or synergistic drug interaction, respectively.
(§5) Additional serial dilutions were prepared in serum-free culture medium to achieve a final 4× concentration. Aliquots of 50 μL of each diluted compound were added per well.
HGC-27 was the human gastric carcinoma cell line selected for this assay.

[2] = test system: PANC-1 human pancreatic carcinoma cell line; assay: cells
Description: as §1, §2, §3, §4, §5
PANC-1 was the human pancreatic carcinoma cell line selected for this assay.

[3] = test system: A549 human lung carcinoma cell line; assay: MTT cytotoxicity assay in A549 cells: IC50 of single agents and combinations with PM01183; type: cell-based
Description: as §5
A549 was the human lung carcinoma cell line selected for this assay.
as §1, §2, §3, §4

[4] = test system: A673 human rhabdomyosarcoma cell line; assay: cells
Description: as §1, §2, §3, §4, §5
A673 was the human rhabdomyosarcoma cell line selected for this assay.

[5] = test system: PC-3 human prostate cancer cell line; assay: cells
Description: as §1, §2, §3, §4, §5
PC-3 was the human prostate adenocarcinome cell line selected for this assay.

[6] = test system: RXF-393 human kidney carcinoma cell line; assay: cells
Description: as §1, §2, §3, §4, §5

[7] = test system: MDA-MB-231 human breast adenocarcinoma cell line; assay: cells
Description: as §1, §2, §3, §4, §5

[8] = test system: IGROV-1 human ovarian adenocarcinoma cell line; assay: cells
Description: as §1, §2, §3, §4, §5
IGROV-1 was the human ovarian adenocarcinoma cell line selected for this assay.

[9] = test system: HT-29 human colon adenocarcinoma cell line; assay: cells
Description: as §1, §2, §3, §4, §5
HT-29 was the human colon adenocarcinoma cell line selected for this assay.

[10] = test system: U87-MG human glioblastoma cell line; assay: cells; details: Homo sapiens, U-87 MG, 72 h
Description: as §1, §2, §3, §4, §5
U87-MG was the human glioblastoma cell line selected for this assay.

[11] = test system: HepG2 human hepatocellular liver carcinoma cell line; assay: MTT cytotoxicity assay in HepG2 cells: IC50 of single agents and combinations with PM01183; type: cell-based; details: Homo sapiens
Description: as §1, §2, §3, §4, §5
HepG2 was the human hepatocellular liver carcinoma cell line selected for this assay.

HT1080 tumors = assay: Human fibrosarcoma (HT1080) orthotopically implanted in athymic nude mice, total diameter (tumor+leg) % T/C; type: in vivo
Description: Female athymic nude mice (Harlan Laboratories Models, S.L. (Barcelona, Spain) were utilized for all experiments. Animals were housed in individually ventilated cages, up to ten per cage in a 12-hour light-dark cycle at 21-23° C. and 40-60% humidity. The mice were allowed free access to irradiated standard rodent diet and sterilized water. Animals were acclimated for at least 5 days prior to tumor implantation with a tumor cell suspension.
HT1080 cells were grown at 37° C. with 5% CO2 in Minimum Essential Medium Eagle (MEME). Each animal was orthotopically implanted into gastroecnemius muscle by an intramuscular injection using 26G needle and a 1 cc syringe, with 5×10^6 HT1080 cells, from in vitro passage 9, suspended in serum free medium, without antibiotics.
Total diameter (tumor+leg) measurements were determined by using digital caliper (Fowler Sylvac, S235PAT). This total diameter and animal body weights were measured 2-3 times per week starting from the first day of treatment.
Treatment tolerability was assessed by monitoring body weight evolution, clinical signs as well as evidences of local damage in the injection site.
PM01183 was provided in the form of vials of lyophilized PM01183 cake which was reconstituted with water for infusion to a concentration of 0.2 mg/mL. The PM01183 stock solution was further diluted in 5% glucose solution for injection to the dosing formulation concentrations. Dacarbazine was provided in the form of a solution prepared by diluting the product with 5% glucose solution for injection to the target final concentration.
Dose level groups were administered either as single agents or in combination.
Comparison of the median total diameter (tumor+leg) in the treatment groups (T) to the median total diameter (tumor+leg) in the control group (T/C×100%) was used for evaluation of the antitumor efficacy.

[12] = test system: SK-MEL-2 human melanoma cell line; assay: cells; details: Homo sapiens, SK-MEL-2, 72 h
Description: as §1, §2, §3, §4, §5
SK-MEL-2 was the human melanoma cell line selected for this assay.

SMILES: Cc1c2oc3c(C)ccc(C(=O)N[C@@H]4C(=O)N[C@H](C(C)C)C(=O)N5CCC[C@H]5C(=O)N(C)CC(=O)N(C)[C@@H](C(C)C)C(=O)O[C@@H]4C)c3nc-2c(C(=O)N[C@@H]2C(=O)N[C@H](C(C)C)C(=O)N3CCC[C@H]3C(=O)N(C)CC(=O)N(C)[C@@H](C(C)C)C(=O)O[C@@H]2C)c(N)c1=O [Actinomycin D, actinomycin D] (I: T[dV]P[Sar][NMeV] / II: T[dV]P[Sar][NMeV]; ester I:1-I:C, II:1-II:C; linker I:N-II:N via Actinocin(9to1))
IC50 ([1]; HGC-27, 72 hours drug exposure, MTT): 3.74 nM
IC50 ([2]; PANC-1, 72 hours drug exposure, MTT): 22 nM
IC50 ([3]; A549, 72 hours drug exposure, MTT, read-out: IC50): 4.7 nM
IC50 ([4]; A673, 72 hours drug exposure, MTT): 0.956 nM
IC50 ([5]; PC-3, 72 hours drug exposure, MTT): 10 nM
IC50 ([6]; RXF-393, 72 hours drug exposure, MTT): 0.709 nM
IC50 ([7]; MDA-MB-231, 72 hours drug exposure, MTT): 0.454 nM
IC50 ([8]; IGROV-1, 72 hours drug exposure, MTT): 3.29 nM
IC50 ([9]; HT-29, 72 hours drug exposure, MTT): 3.27 nM

SMILES: CC(C)C[C@H](NC(=O)[C@H](Cc1ccccc1)NC(=O)c1cnccn1)B(O)O [Bortezomib, bortezomib]
IC50 [10]: 400 nM
IC50 ([1]; Homo sapiens, HGC-27, 72 h): 5.6 nM
IC50 ([11]; HepG2, 72 h): 390 nM
IC50 ([2]; Homo sapiens, PANC-1, 72 h): 416 nM
IC50 ([3]; Homo sapiens, A549, 72 h): 3.1 nM
IC50 ([5]; Homo sapiens, PC-3, 72 h): 800 nM
IC50 ([9]; Homo sapiens, HT-29, 72 h): 6.15 nM

SMILES: CN(C)/N=N/c1[nH]cnc1C(N)=O [Dacarbazine, dacarbazine]
IC50 [10]: 700000 nM
% T/C on day 0 (HT1080 tumors; Dacarbazine 37.5 mg/kg): 100%
% T/C on day 2 (HT1080 tumors; Dacarbazine 37.5 mg/kg): 51.8%
% T/C on day 4 (HT1080 tumors; Dacarbazine 37.5 mg/kg): 54.3%
% T/C on day 7 (HT1080 tumors; Dacarbazine 37.5 mg/kg): 65.4%
% T/C on day 9 (HT1080 tumors; Dacarbazine 37.5 mg/kg): 61.3%
% T/C on day 11 (HT1080 tumors; Dacarbazine 37.5 mg/kg): 47.9%
% T/C on day 14 (HT1080 tumors; Dacarbazine 37.5 mg/kg): 55.1%
% T/C on day 16 (HT1080 tumors; Dacarbazine 37.5 mg/kg): 62.1%
% T/C on day 0 (HT1080 tumors; Dacarbazine 112.5 mg/kg): 100%
% T/C on day 2 (HT1080 tumors; Dacarbazine 112.5 mg/kg): 48.1%
% T/C on day 4 (HT1080 tumors; Dacarbazine 112.5 mg/kg): 34.3%
% T/C on day 7 (HT1080 tumors; Dacarbazine 112.5 mg/kg): 53.8%
% T/C on day 9 (HT1080 tumors; Dacarbazine 112.5 mg/kg): 48.0%
% T/C on day 11 (HT1080 tumors; Dacarbazine 112.5 mg/kg): 37.5%
% T/C on day 14 (HT1080 tumors; Dacarbazine 112.5 mg/kg): 43.2%
% T/C on day 16 (HT1080 tumors; Dacarbazine 112.5 mg/kg): 53.2%
% T/C on day 0 (HT1080 tumors; Dacarbazine 150.0 mg/kg): 100%
% T/C on day 2 (HT1080 tumors; Dacarbazine 150.0 mg/kg): 40.7%
% T/C on day 4 (HT1080 tumors; Dacarbazine 150.0 mg/kg): 28.6%
% T/C on day 7 (HT1080 tumors; Dacarbazine 150.0 mg/kg): 30.8%
% T/C on day 9 (HT1080 tumors; Dacarbazine 150.0 mg/kg): 44.0%
% T/C on day 11 (HT1080 tumors; Dacarbazine 150.0 mg/kg): 37.5%
% T/C on day 14 (HT1080 tumors; Dacarbazine 150.0 mg/kg): 44.9%
% T/C on day 16 (HT1080 tumors; Dacarbazine 150.0 mg/kg): 57.3%
IC50 ([1]; Homo sapiens, HGC-27, 72 h): 346000 nM
IC50 [12]: 630000 nM
IC50 ([3]; Homo sapiens, A549, 72 h): 600000 nM
IC50 ([4]; Homo sapiens, A673, 72 h): 300000 nM
IC50 ([6]; Homo sapiens, RXF 393, 72 h): 794000 nM
IC50 ([7]; Homo sapiens, MDA-MB-231, 72 h): 19200 nM
IC50 ([8]; Homo sapiens, IGROV-1, 72 h): 398000 nM
IC50 ([9]; Homo sapiens, HT-29, 72 h): 24700 nM

IC50 [10]: 100 nM
IC50 ([4]; Homo sapiens, A673, 72 h): 0.65 nM
IC50 ([5]; Homo sapiens, PC-3, 72 h): 18.6 nM
IC50 ([6]; Homo sapiens, RXF 393, 72 h): 0.594 nM
IC50 ([7]; Homo sapiens, MDA-MB-231, 72 h): 2.5 nM
IC50 ([8]; Homo sapiens, IGROV-1, 72 h): 50.1 nM
IC50 ([9]; Homo sapiens, HT-29, 72 h): 0.32 nM
SMILES: CC(=O)O[C@@]12CO[C@@H]1C[C@H](O)[C@@]1(C)C(=O)[C@H](O)C3=C(C)[C@@H](OC(=O)[C@H](O)[C@@H](NC(=O)OC(C)(C)C)c4ccccc4)C[C@@](O)([C@@H](OC(=O)c4ccccc4)[C@H]21)C3(C)C [Docetaxel, docetaxel]
IC50 ([11]; HepG2, 72 hours drug exposure, MTT, read-out: IC50): 500 nM
IC50 ([3]; Homo sapiens, A549, 72 hours drug exposure, MTT, read-out: IC50): 3 nM
